This is an account of results in US20240199611A1, “ANTIBACTERIAL COMPOUNDS” (JANSSEN SCIENCES IRELAND UNLIMITED COMPANY, priority 2021, published 2024).

The test system of the first data set is Mycobacterium tuberculosis strain EH4.0 expressing green-fluorescent protein (GFP). Put plainly: microbe, parasite or virus in culture. Type of data set: cell-based. As to conditions: Test 1 (and/or Test 2), read-out: pIC50 (converted).
As to `O=C(NCc1ccc(N2CCN(S(=O)(=O)C(F)(F)F)C=N2)c(F)c1)c1c(C(F)(F)F)nc2ccc(Cl)cn12` [Compound 124], the IC50 is 10 nM.

For the compound `CCc1nc2sc(Cl)cn2c1C(=O)NCc1ccc(N2CCN(S(=O)(=O)C(F)(F)F)C=N2)c(F)c1` [Compound 135], the IC50 is 7.24 nM.

As for `O=C(NCc1ccc(N2CCN(S(=O)(=O)C(F)(F)F)C=N2)c(F)c1)c1c(C(F)F)nc2n1CCCC2` [Compound 147], the IC50 is 3.8 nM.

On to `Cc1cn2c(C(=O)NCc3ccc(N4CCN(S(=O)(=O)C(F)(F)F)C=N4)c(F)c3)c(C)nc2s1` [Compound 153], for which the IC50 was 1.78 nM.

For `CCc1nc2nc3c(cn2c1C(=O)NCc1ccc(N2CCN(S(=O)(=O)C(F)(F)F)C=N2)c(F)c1)CCC3` [Compound 154], the IC50 is 1.7 nM.

On to `Cc1ccc2nc(C(F)(F)F)c(C(=O)NCc3ccc(N4CCN(S(=O)(=O)C(F)(F)F)C=N4)c(F)c3)n2c1` [Compound 175], for which the IC50 was 1.58 nM.

With `CCc1nc2ccc(F)cn2c1C(=O)NCc1ccc(N2CCN(S(=O)(=O)C(F)(F)F)C(C3CC3)=N2)cc1` [Compound 227], the IC50 was 11.5 nM.

Turning to `CCc1nc2ncc(C)cn2c1C(=O)NCc1ccc(N2CCN(S(=O)(=O)C(F)(F)F)C(C3CC3)=N2)cc1` [Compound 228], the IC50 is 1.45 nM.

In the case of `CCc1nc2ccc(C)cn2c1C(=O)NCc1ccc(N2CCN(S(=O)(=O)C(F)(F)F)C(C3CC3)=N2)cc1` [Compound 229], the IC50 is 1.07 nM.

Take `CCc1nc2ccc(Cl)cn2c1C(=O)NCc1ccc(N2CCN(S(=O)(=O)C(F)(F)F)C(C3CC3)=N2)cc1` [Compound 230]: the IC50 was 6.61 nM.

For `CCc1nc2ccc(C)cn2c1C(=O)NCc1cnc(N2CCN(S(=O)(=O)C(F)(F)F)C(C3CC3)=N2)c(F)c1` [Compound 232], the IC50 is 1.51 nM.

In the case of `CCC1=NN(c2ncc(CNC(=O)c3c(C(F)(F)F)nc4ccccn34)cc2F)CCN1S(=O)(=O)C(F)(F)F` [Compound 236], the IC50 was 6.17 nM.

As for `CCc1nc2ccc(C)cn2c1C(=O)NCc1ccc(N2CCN(S(=O)(=O)C(F)(F)F)C(C3CCC3)=N2)cc1` [Compound 237], the IC50 is 5.75 nM.

In the case of `CC(C)C1=NN(c2ccc(CNC(=O)c3c(C(F)(F)F)nc4n3CCCC4)cc2F)CCN1S(=O)(=O)C(F)(F)F` [Compound 239], the IC50 was 8.91 nM.

`CCc1nc2n(c1C(=O)NCc1ccc(N3CCN(S(=O)(=O)C(F)(F)F)C(C(C)C)=N3)c(F)c1)CCCC2` [Compound 242]: the IC50 was 2.4 nM.

Regarding `CCc1nc2c(F)cc(Cl)cn2c1C(=O)NCc1ccc(N2CCN(S(=O)(=O)C(F)(F)F)C(C(C)C)=N2)cc1` [Compound 244], the IC50 is 4.57 nM.

Take `CCc1nc2cc(C)c(C)cn2c1C(=O)NCc1ccc(N2CCN(S(=O)(=O)C(F)(F)F)C(C(C)C)=N2)cc1` [Compound 245]: the IC50 was 13.8 nM.

For the compound `CCc1nc2ccc(C)cn2c1C(=O)NCc1cnc(N2CCN(S(=O)(=O)C(F)(F)F)C(C(C)C)=N2)c(F)c1` [Compound 246], the IC50 is 2.63 nM.

The data set is the same for the next values; noted with them: read-out: pIC50 (converted).
As to `COC1=NN(c2ccc(CNC(=O)c3nnc4ccc(Cl)cn34)cc2F)CCN1S(=O)(=O)C(F)(F)F` [Compound 92], the IC50 is 53.7 nM.

For `COC1=NN(c2ccc(CNC(=O)c3nnc4ccc(Br)cn34)cc2F)CCN1S(=O)(=O)C(F)(F)F` [Compound 94], the IC50 is 38.9 nM.

Regarding `CCc1nc2c(C)cc(C)cn2c1C(=O)NCc1ccc(N2CCN(S(=O)(=O)C(F)(F)F)C=N2)c(F)c1` [Compound 95], the IC50 was 38 nM.

System in the next data set: not given
Test: not given
Conditions: not given
`CCC1=NN(c2ccc(CNC(=O)c3c(CC)nc4ccc(Cl)cn34)cc2)CCN1S(=O)(=O)C(F)(F)F` [Compound 2] came in with a melting point of 178.31 °C.

The compound `CCc1nc2n(c1C(=O)NCc1ccc(N3CCN(S(=O)(=O)C(F)(F)F)C=N3)cc1)CCCC2` [Compound 3] registered a melting point of 189.22 °C.

Take `O=C(NCc1ccc(N2CCN(S(=O)(=O)C(F)(F)F)C=N2)cc1)c1c(C2CC2)nc2ncc(Cl)cn12` [Compound 7]: the melting point amounted to 208.41 °C.

For `CCc1nc2ncc(F)cn2c1C(=O)NCc1ccc(N2CCN(S(=O)(=O)C(F)(F)F)C=N2)cc1` [Compound 10], the melting point stood at 171.42 °C.

In turn, `COc1ccn2nc(C)c(C(=O)NCc3ccc(N4CCN(S(=O)(=O)C(F)(F)F)C=N4)cc3)c2c1` [Compound 14] came in with a melting point of 192.27 °C.

Take `CCc1nc2ccc(Cl)cn2c1C(=O)NCc1ccc(N2CCN(C)C=N2)cc1` [Compound 15]: the melting point amounted to 206.66 °C.

`CCc1nc2ccc(Cl)cn2c1C(=O)NCc1ccc(N2CCN(S(=O)(=O)CC(C)C)C=N2)cc1` [Compound 17] returned a melting point of 196.82 °C.

`CCc1nc2ccc(Cl)cn2c1C(=O)NCc1ccc(N2CCN(C(C)=O)C=N2)cc1` [Compound 18] yielded a melting point of 245.36 °C.

As to `CCc1nc2ccc(Cl)cn2c1C(=O)NCc1ccc(N2CCN(S(=O)(=O)CCOC)C=N2)cc1` [Compound 19], the melting point was 196.34 °C.

`CCc1nc2ccc(Cl)cn2c1C(=O)NCc1ccc(N2CCN(S(=O)(=O)C(F)(F)F)C(C)=N2)cc1` [Compound 21] registered a melting point of 157.49 °C.

Take `CCc1nc2ccc(Cl)cn2c1C(=O)NCc1ccc(N2CCN(S(=O)(=O)C(F)(F)F)C=N2)cc1OC` [Compound 22]: the melting point amounted to 175.12 °C.

Compound `CCc1nc2ncc(Cl)cn2c1C(=O)NCc1ccc(N2CCN(S(=O)(=O)CC(C)C)C=N2)cc1` [Compound 23] gave a melting point of 207.21 °C.

On to `CCc1nc2ncc(Cl)cn2c1C(=O)NCc1ccc(N2CCN(C(C)=O)C=N2)cc1` [Compound 24], for which the melting point was 258.01 °C.

Turning to `CCc1nc2ncc(Cl)cn2c1C(=O)NCc1ccc(N2CCN(S(=O)(=O)C(F)(F)F)C(OC)=N2)cc1` [Compound 27], the melting point is 174.88 °C.

Compound `CCc1nc2ncc(COC)cn2c1C(=O)NCc1ccc(N2CCN(S(=O)(=O)C(F)(F)F)C=N2)cc1` [Compound 33] registered a melting point of 225.92 °C.

With `CCc1nc2ccc(Cl)cn2c1C(=O)NCc1cc(F)c(N2CCN(S(=O)(=O)C(F)(F)F)C=N2)c(F)c1` [Compound 35], the melting point turned out to be 152.93 °C.

For `CCc1nc2ccc(Cl)cn2c1C(=O)NCc1ccc(N2CCN(S(=O)(=O)C(F)(F)F)C(OC)=N2)c(F)c1` [Compound 37], the melting point was determined as 193.36 °C.

In turn, `CCc1nc2ccc(Cl)cn2c1C(=O)NCc1ccc(N2CCN(C=O)C=N2)cc1` [Compound 38] had a melting point of 255.93 °C.

As for `CCc1nc2c(Cl)c(OC)ccn2c1C(=O)NCc1ccc(N2CCN(S(=O)(=O)C(F)(F)F)C=N2)cc1` [Compound 39], the melting point was 211.19 °C.

In the case of `CCc1nc2ccc(OC)cn2c1C(=O)NCc1ccc(N2CCN(S(=O)(=O)C(F)(F)F)C=N2)cc1` [Compound 42], the melting point is 147.57 °C.

The compound `CCc1nc2cc(Cl)c(OC)cn2c1C(=O)NCc1ccc(N2CCN(S(=O)(=O)C(F)(F)F)C(OC)=N2)cc1` [Compound 45] returned a melting point of 155.29 °C.

`CCc1nc2cc(OC)c(Cl)cn2c1C(=O)NCc1ccc(N2CCN(S(=O)(=O)C(F)(F)F)C(OC)=N2)c(F)c1` [Compound 46] yielded a melting point of 176.82 °C.

With `CCc1nc2ccc(OC)cn2c1C(=O)NCc1ccc(N2CCN(S(=O)(=O)C(F)(F)F)C(OC)=N2)c(F)c1` [Compound 48], the melting point amounted to 74.6 °C.

In the case of `CCc1nc2cc(OC)ccn2c1C(=O)NCc1ccc(N2CCN(S(=O)(=O)C(F)(F)F)C=N2)cc1` [Compound 51], the melting point came out at 185.08 °C.

Regarding `CCc1nc2cc(OC)ccn2c1C(=O)NCc1ccc(N2CCN(S(=O)(=O)C(F)(F)F)C(OC)=N2)cc1` [Compound 52], the melting point is 164.28 °C.

For the compound `CCc1nc2ccc(Cl)cn2c1C(=O)NCc1ccc(N2CCN(S(=O)(=O)C(F)(F)F)C(CCOC)=N2)cc1` [Compound 55], the melting point is 193.51 °C.

`CCc1nc2ccc(Cl)cn2c1C(=O)NCc1ccc(N2CCNC=N2)cc1` [Compound 56] came in with a melting point of 236.36 °C.

`CCc1nc2n(c1C(=O)NCc1ccc(N3CCNC=N3)cc1)CCCC2` [Compound 57] registered a melting point of 211.47 °C.

Compound `CCc1nc2ccc(Cl)cn2c1C(=O)NCc1ccc(N2CCN(C)C(C)=N2)cc1` [Compound 59] returned a melting point of 202.94 °C.

`CCc1nc2ncc(C(=O)NC)cn2c1C(=O)NCc1ccc(N2CCN(S(=O)(=O)C(F)(F)F)C=N2)cc1` [Compound 61] returned a melting point of 193.44 °C.

Compound `CCc1nc2ccc(CCCOC)cn2c1C(=O)NCc1ccc(N2CCN(S(=O)(=O)C(F)(F)F)C=N2)cc1` [Compound 63] showed a melting point of 159.95 °C.

For the compound `CCc1nc2cc(OC)c(Cl)cn2c1C(=O)NCc1ccc(N2CCN(S(=O)(=O)C(F)(F)F)C=N2)cc1` [Compound 64], the melting point turned out to be 193.79 °C.

Take `CCc1nc2ccc(N3CCCC3)cn2c1C(=O)NCc1ccc(N2CCN(S(=O)(=O)C(F)(F)F)C=N2)cc1` [Compound 65]: the melting point came to 228.15 °C.

With `CCc1nc2ccc(Cl)cn2c1C(=O)NCc1ccc(N2CCN(C(=O)C(F)(F)F)C=N2)cc1` [Compound 66], the melting point was 211.3 °C.

Consider `CCc1nc2cc(Cl)c(OC)cn2c1C(=O)NCc1ccc(N2CCN(S(=O)(=O)C(F)(F)F)C=N2)cc1` [Compound 67], for which the melting point was determined as 206.99 °C.

The compound `CCc1nc2ccc(Cl)cn2c1C(=O)NCc1ccc(N2CCN(Cc3nc(C(F)(F)F)cs3)C=N2)cc1` [Compound 69] showed a melting point of 163.46 °C.

For `CCc1nc2cccc(Cl)n2c1C(=O)NCc1ccc(N2CCN(S(=O)(=O)C(F)(F)F)C(OC)=N2)cc1` [Compound 70], the melting point was 138.71 °C.

As to `CCc1nc2ccc(C#N)cn2c1C(=O)NCc1ccc(N2CCN(S(=O)(=O)C(F)(F)F)C=N2)cc1` [Compound 72], the melting point worked out at 216.25 °C.

The compound `CCc1nc2cc(OC)ccn2c1C(=O)NCc1ccc(N2CCN(S(=O)(=O)C(F)(F)F)C(OC)=N2)c(F)c1` [Compound 75] registered a melting point of 135.16 °C.

Compound `CCc1nc2ccc(Cl)cn2c1C(=O)NCc1ccc(N2CCN(c3nccs3)C=N2)cc1` [Compound 76] displayed a melting point of 232.4 °C.

Broadly, the melting point is the temperature, or range, at which the solid turns liquid.
